Measurements: patent US10556898B2, “Indazolyl-1,2,4-thiadiazolamines and related compounds for inhibition of Rho-associated protein kinase and the treatment of disease” (Lycera Corporation, priority 2016, dated 2020)
Like-named read-outs stand apart in the source and are kept apart here.

Key:
[1] = target: T1, GST-tagged human ROCK1 catalytic domain 1-477 (Homo sapiens, UniProt Q13464); experiment: Isolated Enzyme Assay, ROCK1 (LANCE Ultra ULight-CREBtide FRET); assay type: biochemical; details: 30 μM highest concentration tested, read-out: Results from Isolated Enzyme Assay IC50 (μM) ROCK1
T1 construct: human ROCK1 catalytic domain 1-477 from Carna Biosciences (cat #01-109); purchased Carna Biosciences 01-109; host or cells: baculovirus expression system
T1 sequence (Q13464 1-477): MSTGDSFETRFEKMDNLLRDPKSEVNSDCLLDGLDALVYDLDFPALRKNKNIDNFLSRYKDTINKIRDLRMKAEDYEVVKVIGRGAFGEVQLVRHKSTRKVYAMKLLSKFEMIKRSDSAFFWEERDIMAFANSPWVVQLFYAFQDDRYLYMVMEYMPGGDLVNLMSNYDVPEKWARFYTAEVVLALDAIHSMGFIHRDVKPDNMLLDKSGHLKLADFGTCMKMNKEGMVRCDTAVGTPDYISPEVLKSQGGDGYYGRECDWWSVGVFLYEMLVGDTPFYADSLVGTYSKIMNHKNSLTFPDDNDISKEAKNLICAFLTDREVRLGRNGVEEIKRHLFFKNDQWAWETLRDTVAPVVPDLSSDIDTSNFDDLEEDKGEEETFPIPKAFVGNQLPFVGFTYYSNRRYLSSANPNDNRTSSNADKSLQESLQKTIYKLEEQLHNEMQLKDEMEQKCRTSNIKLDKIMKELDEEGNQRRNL
Description: (§1) Exemplary compounds were tested for ability to inhibit Rho-associated protein kinase isoform 1 (ROCK1) and Rho-associated protein kinase isoform 2 (ROCK2). Assay procedures and results are described below.
(§2) Part I—Procedure for Determining ROCK Inhibition Ability of Test Compounds Using an Isolated Enzyme Assay
(§3) Protein constructs were purified from a baculovirus expression system. The peptide substrate was fluorescent LANCE® Ultra ULight-CREBtide: […] (PerkinElmer, # TRF0107-D). Kinase reactions were carried out in a 10 μL volume in 384-well plates: 50 nM ULight-CREBtide substrate, 2 nM constitutively active ROCK1 or ROCK2 kinase, and test compound in DMSO (or DMSO only for controls) were diluted into assay buffer containing 50 mM Tris-HCl (pH=7.5), 10 mM MgCl2, 1 mM EGTA, 0.01% Tween-20, and 2 mM DTT such that the final concentration of DMSO was 0.5%. After a 90 minute incubation at room temperature on a shaker table, the kinase reaction was stopped by addition of 10 mM EDTA, and phosphorylation of the substrate was detected by adding 1 nM LANCE® Ultra Europium-anti-phospho-CREB (ser133) antibody (PerkinElmer, # TRF0200-D) and incubating for 60 minutes on a shaker at room temperature. The fluorescence resonance energy transfer (FRET) signals were read and analyzed on an Envision™ 2103 Multilabel Reader (Perkin Elmer). The concentration of test compound required to inhibit substrate phosphorylation by 50% (the IC50) was calculated by non-linear regression using GraphPad PRIZM.

[2] = target: T2, GST-tagged human ROCK2 catalytic domain 1-553 (Homo sapiens, UniProt O75116); experiment: Isolated Enzyme Assay, ROCK2 (LANCE Ultra ULight-CREBtide FRET); assay type: biochemical; details: 30 μM highest concentration tested, read-out: Results from Isolated Enzyme Assay IC50 (μM) ROCK2
T2 construct: GST-tagged human ROCK2 catalytic domain 1-553 from Carna Biosciences (Cat #01-110); purchased Carna Biosciences 01-110; host or cells: baculovirus expression system
T2 sequence (O75116 1-553): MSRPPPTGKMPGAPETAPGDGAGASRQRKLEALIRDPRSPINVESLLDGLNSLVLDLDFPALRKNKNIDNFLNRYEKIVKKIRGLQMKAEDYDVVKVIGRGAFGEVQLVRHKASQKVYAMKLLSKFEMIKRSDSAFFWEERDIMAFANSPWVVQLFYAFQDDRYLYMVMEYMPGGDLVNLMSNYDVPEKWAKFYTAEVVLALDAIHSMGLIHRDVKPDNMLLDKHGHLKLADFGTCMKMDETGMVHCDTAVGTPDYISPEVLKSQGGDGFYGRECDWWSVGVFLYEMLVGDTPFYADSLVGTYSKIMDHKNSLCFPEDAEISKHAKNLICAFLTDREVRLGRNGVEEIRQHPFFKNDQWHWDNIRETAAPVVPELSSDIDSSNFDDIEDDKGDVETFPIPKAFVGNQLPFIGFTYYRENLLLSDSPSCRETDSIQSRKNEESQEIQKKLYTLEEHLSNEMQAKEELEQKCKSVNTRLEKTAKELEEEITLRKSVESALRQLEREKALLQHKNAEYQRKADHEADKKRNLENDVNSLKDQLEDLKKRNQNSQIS
Description: as §1, §2, §3

[3] = target: T3, ROCK1 (Homo sapiens, UniProt Q13464); experiment: Cell-Based Assay, ROCK1 (HAP1 knockout cells, phospho-MYPT1 Thr853 ELISA); details: read-out: Results from Cell-Based Assay IC50 (μM) ROCK1
T3 construct: endogenous in cells; host or cells: HAP1 knockout cells
T3 sequence (Q13464 whole entry): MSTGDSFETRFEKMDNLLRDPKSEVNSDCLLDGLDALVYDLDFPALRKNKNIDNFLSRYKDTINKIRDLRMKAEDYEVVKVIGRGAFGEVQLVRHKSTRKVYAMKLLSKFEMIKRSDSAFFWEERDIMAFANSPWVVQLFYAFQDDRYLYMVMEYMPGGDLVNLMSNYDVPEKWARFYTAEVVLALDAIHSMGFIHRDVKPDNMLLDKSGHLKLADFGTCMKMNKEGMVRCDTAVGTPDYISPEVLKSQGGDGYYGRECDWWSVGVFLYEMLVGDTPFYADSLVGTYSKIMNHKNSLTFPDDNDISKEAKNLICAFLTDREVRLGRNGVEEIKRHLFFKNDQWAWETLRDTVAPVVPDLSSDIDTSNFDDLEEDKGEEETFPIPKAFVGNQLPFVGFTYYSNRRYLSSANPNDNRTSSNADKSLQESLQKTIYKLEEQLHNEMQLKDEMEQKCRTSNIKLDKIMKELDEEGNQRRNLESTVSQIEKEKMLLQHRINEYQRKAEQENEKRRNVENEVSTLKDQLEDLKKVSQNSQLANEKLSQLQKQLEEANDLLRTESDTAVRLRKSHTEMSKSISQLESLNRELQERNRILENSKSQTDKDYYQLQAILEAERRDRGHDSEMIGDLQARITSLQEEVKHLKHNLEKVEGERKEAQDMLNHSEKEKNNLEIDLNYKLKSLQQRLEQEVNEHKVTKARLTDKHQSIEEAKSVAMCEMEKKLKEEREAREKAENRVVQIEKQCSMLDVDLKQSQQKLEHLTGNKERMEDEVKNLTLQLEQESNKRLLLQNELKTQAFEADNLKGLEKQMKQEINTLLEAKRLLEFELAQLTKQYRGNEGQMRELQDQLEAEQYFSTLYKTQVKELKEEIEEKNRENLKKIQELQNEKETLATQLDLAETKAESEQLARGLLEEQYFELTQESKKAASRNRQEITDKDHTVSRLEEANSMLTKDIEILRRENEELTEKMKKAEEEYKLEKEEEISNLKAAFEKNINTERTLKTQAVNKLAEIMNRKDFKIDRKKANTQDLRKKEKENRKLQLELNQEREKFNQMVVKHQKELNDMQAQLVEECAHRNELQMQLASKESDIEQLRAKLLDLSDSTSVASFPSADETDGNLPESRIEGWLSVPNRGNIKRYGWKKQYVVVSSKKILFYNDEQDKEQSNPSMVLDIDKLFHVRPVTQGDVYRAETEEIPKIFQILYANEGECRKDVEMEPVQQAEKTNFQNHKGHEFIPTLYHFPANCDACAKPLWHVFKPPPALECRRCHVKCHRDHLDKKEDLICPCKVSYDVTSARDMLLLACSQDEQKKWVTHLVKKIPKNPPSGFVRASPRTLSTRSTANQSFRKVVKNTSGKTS
Description: (§4) Part II—Procedure for Determining ROCK Inhibition Ability of Test Compounds Using a Cell-Base Assay
(§5) The Cell-Based Assay for determining ROCK inhibition ability of test compounds utilized a genetically modified HAP1 cell line engineered to eliminate expression of either ROCK1 or ROCK2. In the procedure, HAP1 knockout cells are grown in Iscove's Modified Dulbecco's Medium that is additionally supplemented with 10% fetal bovine and 1x antibiotic-antimycotic mixture. Cells are plated in 96 well tissue culture plates at 1×10^5 cells/well (100 μL, of cells at 1×10^6/mL). Test compounds are solubilized in DMSO and diluted into the same media used to grow the cells. A 100 μL, aliquot of each compound dilution in media is added to each well containing the HAP1 cells and incubated at 37° C. for 30 minutes. Following compound incubation, the cells are pelleted by centrifugation at 1800 rpm for 5 minutes at 4° C. Media is removed from the cell pellet and the cells lysed and de-salted. An 80 μL, aliquot of each cell lysate is added to a single well of a 96-well high binding ELISA plate which has been pre-coated with a MYPT1 capture antibody and incubated at 4° C. overnight. The following day the ELISA plate is washed 4× with 0.05% Tween-20 in PBS. After washing, an anti-phospho-MYPT1 (Thr853) antibody is added and allowed to bind for 1 hour at room temperature. The wash step is repeated, and then an anti-rabbit HRP detection antibody is added and allowed to incubate at room temperature for 1 hour. The wash step is then repeated and 100 μL/well 1-Step™ Ultra TMB substrate is added to the ELISA plate and allowed to develop for approximately 5 minutes. The reaction is stopped by addition of H2SO4. Absorbance is read at 450 OD. Data is analyzed using GraphPad Prism software to calculate the 50% inhibitory concentration of test compound (IC50).

[4] = target: T4, ROCK2 (Homo sapiens, UniProt O75116); experiment: Cell-Based Assay, ROCK2 (HAP1 knockout cells, phospho-MYPT1 Thr853 ELISA); details: read-out: Results from Cell-Based Assay IC50 (μM) ROCK2
T4 construct: endogenous in cells; host or cells: HAP1 knockout cells
T4 sequence (O75116 whole entry): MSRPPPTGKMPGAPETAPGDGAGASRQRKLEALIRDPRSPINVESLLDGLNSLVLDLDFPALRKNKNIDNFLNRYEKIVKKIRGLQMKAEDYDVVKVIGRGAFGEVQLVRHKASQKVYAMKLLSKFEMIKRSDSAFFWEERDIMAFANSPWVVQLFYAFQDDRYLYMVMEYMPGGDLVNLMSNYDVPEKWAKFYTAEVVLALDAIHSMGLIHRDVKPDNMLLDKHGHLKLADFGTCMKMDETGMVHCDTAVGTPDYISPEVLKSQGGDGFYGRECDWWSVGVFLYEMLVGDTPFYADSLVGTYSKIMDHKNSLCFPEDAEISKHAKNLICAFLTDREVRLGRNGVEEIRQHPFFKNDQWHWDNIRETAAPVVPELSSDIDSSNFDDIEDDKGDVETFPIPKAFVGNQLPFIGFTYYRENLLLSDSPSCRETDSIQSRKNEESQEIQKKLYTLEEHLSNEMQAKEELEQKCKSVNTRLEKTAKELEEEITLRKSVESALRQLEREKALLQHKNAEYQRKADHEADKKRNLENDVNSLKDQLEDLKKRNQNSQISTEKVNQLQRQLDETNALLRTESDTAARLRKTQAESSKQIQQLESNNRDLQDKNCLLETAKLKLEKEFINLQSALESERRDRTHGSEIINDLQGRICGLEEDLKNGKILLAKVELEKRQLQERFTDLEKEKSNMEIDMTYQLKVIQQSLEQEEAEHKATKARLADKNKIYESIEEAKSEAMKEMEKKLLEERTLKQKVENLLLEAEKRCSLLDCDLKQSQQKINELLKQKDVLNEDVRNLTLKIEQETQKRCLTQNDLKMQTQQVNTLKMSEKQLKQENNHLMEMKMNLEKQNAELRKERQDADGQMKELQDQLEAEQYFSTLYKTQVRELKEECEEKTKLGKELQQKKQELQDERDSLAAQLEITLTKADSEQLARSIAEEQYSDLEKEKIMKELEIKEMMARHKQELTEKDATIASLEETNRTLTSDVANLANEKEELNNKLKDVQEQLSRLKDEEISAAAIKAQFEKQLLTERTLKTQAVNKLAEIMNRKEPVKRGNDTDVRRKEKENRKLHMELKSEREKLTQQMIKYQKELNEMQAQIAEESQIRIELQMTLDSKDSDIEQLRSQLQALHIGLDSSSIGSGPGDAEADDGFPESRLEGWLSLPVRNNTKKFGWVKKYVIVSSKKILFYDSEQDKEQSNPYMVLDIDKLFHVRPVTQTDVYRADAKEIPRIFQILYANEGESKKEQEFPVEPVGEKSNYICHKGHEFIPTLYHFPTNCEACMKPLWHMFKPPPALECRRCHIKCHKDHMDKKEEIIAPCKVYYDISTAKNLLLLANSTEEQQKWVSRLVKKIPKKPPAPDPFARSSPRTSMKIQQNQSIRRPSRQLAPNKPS
Description: as §4, §5

[5] = phospho-MYPT1, 30 μM highest concentration tested

Row | SMILES | IC50 ([1]; isolated enzyme assay) [µM] | IC50 ([2]; isolated enzyme assay) [µM] | IC50 ([3]; class symbols) [µM] | IC50 ([4]; class symbols) [µM] | IC50 ([3]; numeric bound) [µM] | IC50 ([1]; isolated enzyme) [µM] | IC50 ([2]; isolated enzyme) [µM] | IC50 [3, 5] [µM] | IC50 [4, 5] [µM] | IC50 ([4]; numeric bound) [µM]
1 | Cn1cnc2c(-c3nsc(Nc4ccc5[nH]ncc5c4Cl)n3)cccc21 [IV-82] | < 1 | 1 to 15 | 1 to 15 | < 1 | – | – | – | – | – | –
2 | O=C(NCC(F)(F)F)c1cccc(-c2nsc(Nc3ccc4[nH]ncc4c3Cl)n2)c1 [IV-81] | < 1 | < 1 | – | < 1 | > 10 | – | – | – | – | –
3 | Cc1nc(C)c(C(=O)Nc2cccc(-c3nsc(Nc4ccc5[nH]ncc5c4Cl)n3)c2)o1 [IV-61] | < 1 | < 1 | – | < 1 | > 10 | – | – | – | – | –
4 | Oc1ccn(-c2cccc(-c3nsc(Nc4ccc5[nH]ncc5c4Cl)n3)c2)n1 [IV-17] | < 1 | < 1 | – | 1 to 15 | > 10 | – | – | – | – | –
5 | CNC(=O)c1cc(-c2nsc(Nc3ccc4[nH]ncc4c3Cl)n2)cn(C)c1=O [IV-2] | < 1 | < 1 | – | < 1 | > 10 | – | – | – | – | –
6 | Cc1coc(-c2cc(-c3nsc(Nc4ccc5[nH]ncc5c4Cl)n3)ccn2)n1 [IV-59] | > 30 | < 1 | – | < 1 | > 10 | – | – | – | – | –
7 | CC(C)NC(=O)c1cc(-c2nsc(Nc3ccc4[nH]ncc4c3Cl)n2)ccc1F [IV-14] | < 1 | < 1 | 1 to 15 | < 1 | – | – | – | – | – | –
8 | CC1COCCN1C(=O)Nc1cc(-c2nsc(Nc3ccc4[nH]ncc4c3Cl)n2)ccn1 (centres unmarked) [IV-38] | < 1 | < 1 | 1 to 15 | < 1 | – | – | – | – | – | –
9 | C[C@H]1CN(c2cccc(-c3nsc(Nc4ccc5[nH]ncc5c4Cl)n3)c2)C(=O)O1 [IV-32] | < 1 | < 1 | 1 to 15 | < 1 | – | – | – | – | – | –
10 | Cc1coc(-c2cccc(-c3nsc(Nc4ccc5[nH]ncc5c4F)n3)c2)n1 [IV-15] | < 1 | < 1 | – | < 1 | > 10 | – | – | – | – | –
11 | CN1CCC(NC(=O)c2cc(-c3nsc(Nc4ccc5[nH]ncc5c4Cl)n3)ccc2F)CC1 [IV-46] | < 1 | < 1 | – | < 1 | > 10 | – | – | – | – | –
12 | Cc1cc(C(=O)Nc2cncc(-c3nsc(Nc4ccc5[nH]ncc5c4Cl)n3)c2)n(C)n1 [IV-42] | > 30 | > 30 | – | < 1 | > 10 | – | – | – | – | –
13 | Cc1ccncc1C(=O)Nc1cccc(-c2nsc(Nc3ccc4[nH]ncc4c3Cl)n2)c1 [Compound A-4] | – | – | – | – | – | > 30 | < 1 | 1 to 15 | < 1 | –
14 | O=C(NC1CCCC1)c1cc(-c2nsc(Nc3ccc4[nH]ncc4c3Cl)n2)ccc1F [IV-48] | < 1 | < 1 | 1 to 15 | < 1 | – | – | – | – | – | –
15 | Cc1cc(C(=O)Nc2cccc(-c3nsc(Nc4ccc5[nH]ncc5c4Cl)n3)c2)n[nH]1 [IV-76] | < 1 | < 1 | – | < 1 | > 10 | – | – | – | – | –
16 | Cn1cc(C(=O)Nc2cccc(-c3nsc(Nc4ccc5[nH]ncc5c4Cl)n3)c2)c(C(F)(F)F)n1 [IV-72] | < 1 | < 1 | 1 to 15 | < 1 | – | – | – | – | – | –
17 | O=C1OCCN1c1cccc(-c2nsc(Nc3ccc4[nH]ncc4c3Cl)n2)c1 [IV-55] | < 1 | < 1 | 1 to 15 | < 1 | – | – | – | – | – | –
18 | Cc1cc(NC(=O)c2cocn2)cc(-c2nsc(Nc3ccc4[nH]ncc4c3Cl)n2)n1 [IV-19] | < 1 | < 1 | – | < 1 | > 10 | – | – | – | – | –
19 | CC(C)NC(=O)COc1cccc(-c2nsc(Nc3ccc4[nH]ncc4c3Cl)n2)c1 [IV-9] | < 1 | < 1 | 1 to 15 | < 1 | – | – | – | – | – | –
20 | Cn1nccc1C(=O)Nc1cc(-c2nsc(Nc3ccc4[nH]ncc4c3Cl)n2)cn(C)c1=O [IV-6] | < 1 | < 1 | – | < 1 | > 10 | – | – | – | – | –
21 | Cc1cnc(-c2cncc(-c3nsc(Nc4ccc5[nH]ncc5c4Cl)n3)c2)o1 [IV-103] | > 30 | > 30 | – | – | – | – | – | – | – | > 10
22 | O=C(Nc1cc(-c2nsc(Nc3ccc4[nH]ncc4c3Cl)n2)ccn1)c1ccccc1F [IV-60] | > 30 | > 30 | – | 1 to 15 | – | – | – | – | – | –
23 | Cc1cc(-c2nc(C)co2)cc(-c2nsc(Nc3ccc4[nH]ncc4c3Cl)n2)n1 [IV-105] | > 30 | > 30 | – | – | – | – | – | – | – | > 10
24 | O=C(Nc1cccc(-c2nsc(Nc3ccc4[nH]ncc4c3Cl)n2)c1)c1cncs1 [Compound A-16] | – | – | – | – | – | < 1 | < 1 | – | < 1 | –
25 | Cc1cn2cccc(-c3nsc(Nc4ccc5[nH]ncc5c4Cl)n3)c2n1 [IV-89] | < 1 | < 1 | – | – | – | – | – | – | – | > 10
26 | Cc1cc(C(=O)Nc2cccc(-c3nsc(Nc4ccc5[nH]ncc5c4Cl)n3)c2)on1 [Compound A-18] | – | – | – | – | – | < 1 | < 1 | – | < 1 | –
27 | COc1cccc(C(=O)Nc2cc(C)nc(-c3nsc(Nc4ccc5[nH]ncc5c4Cl)n3)c2)c1 [IV-44] | > 30 | > 30 | – | 1 to 15 | – | – | – | – | – | –
28 | O=C(Nc1cc(-c2nsc(Nc3ccc4[nH]ncc4c3Cl)n2)ccn1)c1cnco1 [IV-28] | > 30 | < 1 | – | – | – | – | – | – | – | > 10
